In US20140271926A1, “METHODS OF USE OF GLUTAMINE SYNTHETASE INHIBITORS” (CALIFORNIA INSTITUTE OF TECHNOLOGY, priority 2013, published 2014):

What was measured:
FlagCRBN [1] = target: T1, FlagCRBN (Homo sapiens, UniProt Q96SW2); assay: SILAC quantitative mass spectrometry of FlagCRBN immunoprecipitates, thalidomide vs DMSO; format: cell-based; conditions: 50 μM thalidomide 4 hours vs DMSO
T1 construct: expressed in transfected cells
Protocol: To identify IMiD-modulated substrates of CRBN, a human embryonic kidney (HEK) 293T cell line was generated that stably expresses CRBN with a Flag tag appended to its amino terminus (^FlagCRBN). ^FlagCRBN cells were grown in medium formulated with isotopically light lysine and arginine (light medium) or in medium formulated with isotopically heavy lysine and arginine (heavy medium). Cells growing in heavy medium were treated with 50 μM thalidomide for 4 hours, whereas cells growing in light medium were treated with DMSO. ^FlagCRBN immunoprecipitates were prepared in parallel, mixed, and analyzed by quantitative mass spectrometry. […] Essentially identical results were obtained in a label swap experiment. […] (Lopez-Girona et al., 2012, supra and Zhu et al. 2011 supra.)
Preparation of ^FlagCRBN for mass spectrometry (MS). SILAC-labeled cultures of the stable cell lines were grown as described Lee et al., 2011, Molecular & Cellular Proteomics, 10: M110 006460,the entire contents of which are herein incorporated by reference. Briefly, HEK293T cells, stably expressing ^FlagCRBN, were cultured in medium formulated with isotopically light lysine and arginine (‘light’ medium) or in medium formulated with isotopically heavy lysine and arginine (‘heavy’ medium). The cells growing in ‘heavy’ medium were treated with thalidomide (a final concentration of 50 μM) for 4 hours, while the cells growing in ‘light’ medium were treated with DMSO. SILAC experiments were repeated after swapping the SILAC labels in which the cells cultured in ‘light’ and ‘heavy’ medium were treated with thalidomide and DMSO, respectively. The ^FlagCRBN immunoprecipitates were prepared, mixed, and analyzed by quantitative mass spectrometry.
MS data analysis. Thermo raw files were processed and searched with MaxQuant (v. 1.4.1.2), as described in Cox et al., 2008, Nat. Biotechnol. 26:1367; and Cox et al., 2011, J. of Proteome Research, 10:1794, the entire contents of both of which are herein incorporated by reference. Trypsin was specified as the digestion enzyme with up to two missed cleavages. Protein N-terminal acetylation (+42.0106) and methionine oxidation (+15.9949) were specified as variable modifications. Carbamidomethylation of cysteine (+57.0215) was specified as a fixed modification. Arg6 ([…]) and Lys8 (+8.0142) were specified as the SILAC labels. Requantification and match between runs were enabled. Precursor ion tolerance was 7 ppm and fragment ion tolerance was 0.5 Da. All human Uniprot entries were searched (148298 sequences, downloaded on 05Dec12) along with a contaminant database containing proteins such as keratin and trypsin (247 sequences). (Apweiler et al., 2013, Nucleic Acids Research, 41: D43, the entire contents of which are herein incorporated by reference.) Additionally, to determine the false discovery rate, a decoy database was constructed by reversing the target database. While no minimum score was specified, the protein and peptide level false discovery rates were fixed at 1% and we required that all proteins reported were identified in both biological replicates by at least two peptides.
Proteins were quantified by first calculating the median of all peptide ratios within each biological replicate and then calculating the mean of the two biological replicate ratios. Only peptides uniquely assignable to the protein group were used for quantification. […] Individual ratio measurement error was estimated using pooled variance and overall ratio standard error was calculated using bootstrap analysis. […] Q-values were calculated from the p-values using the Storey method for calculating false discovery rates as described in Storey et al., 2002, J. Roy Stat. Soc. B., 64:479, the entire contents of which is herein incorporated by reference. A q-value of 0.05 was used as a threshold for significance.

FlagCRBN [2] = target: T1, FlagCRBN; assay: FlagCRBN immunoprecipitation from stable HEK293T cells, immunoblot for CRL4CRBN subunits and GS; format: cell-based; conditions: FIG. 2
Protocol: To confirm the results of the quantitative mass spectrometry, ^FlagCRBN was immunoprecipitated from the stable HEK293T cell line and immunoblotted for CRL4^CRBN subunits and GS. As expected, thalidomide enhanced recovery of GS but had no effect on binding of DDB1 or CUL4A (FIG. 2). In order to confirm this finding, endogenous proteins expressed in cells were analyzed that are responsive to the therapeutic effects of IMiDs. For this purpose, endogenous CRBN as immunoprecipitated from MM.1S multiple myeloma cells.
Immunoprecipitation. Cells were lysed in immunoprecipitation buffer (10 mM Tris [pH 7.5], 150 mM NaCl, 1% Triton X-100) containing a protease inhibitor cocktail, and immunoprecipitated with the indicated antibodies, such as anti-CRBN antibody for 2-4 hours at 4° C., followed by incubation with protein G sepharose 4 Fast Flow (GE Healthcare) for 1 hour at 4° C. Immunoprecipitated proteins were resolved by SDS/PAGE and analyzed by immunoblotting with the indicated antibodies.

T1 sequence (Q96SW2 whole entry): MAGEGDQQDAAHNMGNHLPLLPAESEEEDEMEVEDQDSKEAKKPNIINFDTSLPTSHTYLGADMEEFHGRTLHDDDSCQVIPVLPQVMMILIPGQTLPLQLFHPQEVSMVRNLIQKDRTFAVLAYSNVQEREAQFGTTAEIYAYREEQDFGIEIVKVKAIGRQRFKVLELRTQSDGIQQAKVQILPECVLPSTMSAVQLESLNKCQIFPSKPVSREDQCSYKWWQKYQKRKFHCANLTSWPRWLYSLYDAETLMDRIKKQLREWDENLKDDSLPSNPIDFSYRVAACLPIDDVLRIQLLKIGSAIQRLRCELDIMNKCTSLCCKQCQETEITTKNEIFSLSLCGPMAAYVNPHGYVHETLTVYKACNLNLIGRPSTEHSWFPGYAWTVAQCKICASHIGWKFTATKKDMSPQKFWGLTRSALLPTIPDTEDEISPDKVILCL

recovery of FlagCRBN, subunits of CRL4 (CUL4, DDB1, RBX1) and subunits of CSN (FlagCRBN [1]; FIG. 1): recovered in equal amounts
recovery of glutamine synthetase (GS) in FlagCRBN immunoprecipitates (FlagCRBN [1]; FIG. 1): recovered in greater amounts
+/−Thalidomide Ratio (FlagCRBN [1]; protein ATP5A1): 0.7541
+/−Thalidomide Ratio (FlagCRBN [1]; protein ATP5B): 0.6236
+/−Thalidomide Ratio (FlagCRBN [1]; protein BAG2): 0.6303
+/−Thalidomide Ratio (FlagCRBN [1]; protein BOLA2): 0.5989
+/−Thalidomide Ratio (FlagCRBN [1]; protein C11orf84): 0.7032
+/−Thalidomide Ratio (FlagCRBN [1]; protein C12orf23): 0.6718
+/−Thalidomide Ratio (FlagCRBN [1]; protein C22orf28): 0.7109
+/−Thalidomide Ratio (FlagCRBN [1]; protein CCT5): 0.8584
+/−Thalidomide Ratio (FlagCRBN [1]; protein CCT6A): 0.8483
+/−Thalidomide Ratio (FlagCRBN [1]; protein CCT8): 0.8368
+/−Thalidomide Ratio (FlagCRBN [1]; protein CLNS1A): 0.627
+/−Thalidomide Ratio (FlagCRBN [1]; protein CMBL): 0.7463
+/−Thalidomide Ratio (FlagCRBN [1]; protein COMT): 0.5482
+/−Thalidomide Ratio (FlagCRBN [1]; protein DDX5, DKFZp686J01190): 0.6321
+/−Thalidomide Ratio (FlagCRBN [1]; protein DKFZp686K23100, MATR3, DKFZp686K0542): 0.526
+/−Thalidomide Ratio (FlagCRBN [1]; protein FUS): 0.5807
+/−Thalidomide Ratio (FlagCRBN [1]; protein GLNS (glutamine synthetase)): 2.508
+/−Thalidomide Ratio (FlagCRBN [1]; protein GLUD1, GLUD2): 0.7935
+/−Thalidomide Ratio (FlagCRBN [1]; protein HNRNPA2B1): 0.4533
+/−Thalidomide Ratio (FlagCRBN [1]; protein HNRNPAB): 0.569
+/−Thalidomide Ratio (FlagCRBN [1]; protein HNRNPC, hCG_1641229, HNRPCL1, HNRNPCL1, LOC440563, LOC649330): 0.4229
+/−Thalidomide Ratio (FlagCRBN [1]; protein HNRNPK, HNRPK): 0.5905
+/−Thalidomide Ratio (FlagCRBN [1]; protein HNRNPL): 0.44
+/−Thalidomide Ratio (FlagCRBN [1]; protein HNRNPM, ORF, HNRPM): 0.6977
+/−Thalidomide Ratio (FlagCRBN [1]; protein HNRNPU, HNRPU): 0.7137
+/−Thalidomide Ratio (FlagCRBN [1]; protein HSP90AA1): 0.7454
+/−Thalidomide Ratio (FlagCRBN [1]; protein HSP90AB1): 0.79
+/−Thalidomide Ratio (FlagCRBN [1]; protein IMPDH2): 0.8138
+/−Thalidomide Ratio (FlagCRBN [1]; protein IVNS1ABP): 0.6131
+/−Thalidomide Ratio (FlagCRBN [1]; protein KIF11): 0.6737
+/−Thalidomide Ratio (FlagCRBN [1]; protein LUC7L2): 0.7578
+/−Thalidomide Ratio (FlagCRBN [1]; protein PDIA6): 0.8515
+/−Thalidomide Ratio (FlagCRBN [1]; protein PIH1D1): 0.5153
+/−Thalidomide Ratio (FlagCRBN [1]; protein PRPS1): 0.7264
+/−Thalidomide Ratio (FlagCRBN [1]; protein PRPS2): 0.6445
+/−Thalidomide Ratio (FlagCRBN [1]; protein PUF60): 0.5471
+/−Thalidomide Ratio (FlagCRBN [1]; protein RBM39, DKFZp781C0423, DKFZp686A11192, DKFZp781I1140, DKFZp686C17209): 0.6182
+/−Thalidomide Ratio (FlagCRBN [1]; protein RBMX, RBMXL1): 0.5004
+/−Thalidomide Ratio (FlagCRBN [1]; protein RIOK1): 0.6187
+/−Thalidomide Ratio (FlagCRBN [1]; protein RPL26, KRBA2, RPL26L1): 0.698
+/−Thalidomide Ratio (FlagCRBN [1]; protein RPL27): 0.7987
+/−Thalidomide Ratio (FlagCRBN [1]; protein RPL35, LOC154880): 0.6839
+/−Thalidomide Ratio (FlagCRBN [1]; protein RPS3A): 0.7607
+/−Thalidomide Ratio (FlagCRBN [1]; protein RPS8): 0.8186
+/−Thalidomide Ratio (FlagCRBN [1]; protein RPS25): 0.7348
+/−Thalidomide Ratio (FlagCRBN [1]; protein RPSA, RPSAP58, LAMR1P15): 0.8005
+/−Thalidomide Ratio (FlagCRBN [1]; protein RUVBL1): 0.7099
+/−Thalidomide Ratio (FlagCRBN [1]; protein RUVBL2): 0.6927
+/−Thalidomide Ratio (FlagCRBN [1]; protein SF3A3): 0.5959
+/−Thalidomide Ratio (FlagCRBN [1]; protein SFRS11, SRSF11): 0.573
+/−Thalidomide Ratio (FlagCRBN [1]; protein SNRPD1): 0.6168
+/−Thalidomide Ratio (FlagCRBN [1]; protein SNRPD3): 0.6583
+/−Thalidomide Ratio (FlagCRBN [1]; protein SNRPF): 0.6071
+/−Thalidomide Ratio (FlagCRBN [1]; protein SNRPN, SNRPB): 0.6605
+/−Thalidomide Ratio (FlagCRBN [1]; protein SPIN1): 0.6689
+/−Thalidomide Ratio (FlagCRBN [1]; protein SRSF3, SFRS3): 0.651
+/−Thalidomide Ratio (FlagCRBN [1]; protein STK38): 0.7445
+/−Thalidomide Ratio (FlagCRBN [1]; protein TCP1): 0.8927
+/−Thalidomide Ratio (FlagCRBN [1]; protein TRIM21): 0.7125
+/−Thalidomide Ratio (FlagCRBN [1]; protein TXN): 0.7037
+/−Thalidomide Ratio (FlagCRBN [1]; protein U2AF2): 0.6123
+/−Thalidomide Ratio (FlagCRBN [1]; protein VCP, DKFZp434K0126): 0.7702
+/−Thalidomide Ratio (FlagCRBN [1]; protein WDR77): 0.5895
binding of DDB1 or CUL4A to FlagCRBN (FlagCRBN [2]): no effect
recovery of GS with FlagCRBN (FlagCRBN [2]): enhanced
Compound: O=C1CCC(N2C(=O)c3ccccc3C2=O)C(=O)N1 (stereo not shown) [thalidomide, Thalidomide]
